{"source": "patent US20240181106A1", "about": "“WATER-SOLUBLE PHOTOSENSITIVE COMPOSITION OF PHOTODYNAMIC ENVIRONMENTAL DISINFECTION AND METHOD OF ENVIRONMENTAL DISINFECTION BY USING THE SAME” (NATIONAL CHENG KUNG UNIVERSITY, priority 2022, published 2024)", "origin": "cited, not measured here", "data": [{"compound": "CN(C)c1ccc2nc3ccc(=[N+](C)C)cc-3sc2c1", "note": "[methylene blue]", "values": [{"measurement": "safe single dose", "setting": "60 kg-weight adult, every 4 hours", "result": 120, "unit": "mg"}, {"measurement": "daily dose not to be exceeded", "setting": "human", "result": "≤ 7", "unit": "mg/kg daily"}, {"measurement": "maximum safe dose administered to a human", "setting": "human", "result": 2, "unit": "mg/kg/single dose"}]}]}
